Data taken from ChEMBL document CHEMBL3351292, “Structure-Based Design and Synthesis of Potent Cyclic Peptides Inhibiting the YAP-TEAD Protein-Protein Interaction” (ACS Med Chem Lett, 2014).
Where a SMILES comes first, the peptide text is derived from it.

Tests used:
[1] = target: Transcriptional coactivator YAP1/Transcriptional enhancer factor TEF-1 (Homo sapiens, UniProt P28347); assay: Inhibition of YAP/ GST-TEAD1 (unknown origin) interaction by surface plasmon resonance assay; type: protein assay
[2] = target: Transcriptional coactivator YAP1/Transcriptional enhancer factor TEF-1 (Homo sapiens) (UniProt P46937+P28347); assay: Inhibition of YAP/ GST-TEAD1 (unknown origin) interaction at 50 uM by surface plasmon resonance assay; type: protein assay
Transcriptional coactivator YAP1/Transcriptional enhancer factor TEF-1 (Homo sapiens), sequence (P28347 whole entry, looked up): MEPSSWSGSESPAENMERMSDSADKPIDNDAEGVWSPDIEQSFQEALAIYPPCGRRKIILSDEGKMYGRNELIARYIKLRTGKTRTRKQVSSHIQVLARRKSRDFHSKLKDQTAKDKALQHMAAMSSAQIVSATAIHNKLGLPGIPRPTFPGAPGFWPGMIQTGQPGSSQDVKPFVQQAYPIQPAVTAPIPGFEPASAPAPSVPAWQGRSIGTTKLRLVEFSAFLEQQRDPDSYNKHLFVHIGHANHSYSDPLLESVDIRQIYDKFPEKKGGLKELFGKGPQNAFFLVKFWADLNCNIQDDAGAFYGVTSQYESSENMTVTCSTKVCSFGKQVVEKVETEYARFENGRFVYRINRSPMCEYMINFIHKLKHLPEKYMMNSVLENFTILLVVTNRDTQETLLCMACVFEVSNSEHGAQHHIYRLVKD
Transcriptional coactivator YAP1/Transcriptional enhancer factor TEF-1 (Homo sapiens), sequence (P46937 whole entry, looked up): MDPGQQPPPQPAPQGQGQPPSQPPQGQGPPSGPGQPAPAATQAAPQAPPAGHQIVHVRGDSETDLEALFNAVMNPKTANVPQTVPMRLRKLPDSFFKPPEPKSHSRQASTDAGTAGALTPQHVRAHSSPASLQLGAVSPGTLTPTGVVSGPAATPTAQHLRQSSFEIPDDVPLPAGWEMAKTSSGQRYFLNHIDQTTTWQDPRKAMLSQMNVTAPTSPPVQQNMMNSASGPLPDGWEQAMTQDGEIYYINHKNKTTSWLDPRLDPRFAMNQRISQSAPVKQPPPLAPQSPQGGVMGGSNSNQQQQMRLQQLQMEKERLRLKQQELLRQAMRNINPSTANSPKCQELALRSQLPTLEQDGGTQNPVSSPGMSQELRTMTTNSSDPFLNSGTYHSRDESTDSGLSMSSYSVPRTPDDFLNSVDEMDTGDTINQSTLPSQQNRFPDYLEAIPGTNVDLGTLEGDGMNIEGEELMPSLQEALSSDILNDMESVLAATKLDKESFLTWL

Transcriptional coactivator YAP1/Transcriptional enhancer factor TEF-1, sequence (P46937 whole entry): as the sequence (P46937 whole entry, looked up) above
Transcriptional coactivator YAP1/Transcriptional enhancer factor TEF-1, sequence (P28347 whole entry): as the sequence (P28347 whole entry, looked up) above

SMILES	IC50 [1]	inhibition [2]
CSCC[C@H](NC(=O)[C@@H]1CCCN1C(=O)[C@@H](NC(C)=O)C(C)C)C(=O)N[C@H]1CCSSC[C@@H](C(=O)N[C@@H](CCCCN)C(=O)N2CCC[C@H]2C(=O)N2CCC[C@H]2C(=O)N[C@@H](CCC(=O)O)C(N)=O)NC(=O)[C@H](Cc2ccccc2)NC(=O)[C@H](CO)NC(=O)[C@H](C)NC(=O)[C@@H]2CCCN2C(=O)[C@H](CCC(C)C)NC(=O)[C@H](CCCCN)NC(=O)[C@H](CCCNC(=N)N)NC(=O)[C@H](CC(C)C)NC1=O	620 nM	–
CCCCC[C@H](NC(=O)[C@@H]1CCCN1C(=O)[C@@H](NC(C)=O)C(C)C)C(=O)N[C@H]1CCSSC[C@@H](C(=O)N[C@@H](CCCCN)C(=O)N2CCC[C@H]2C(=O)N2CCC[C@H]2C(=O)N[C@@H](CCC(=O)O)C(N)=O)NC(=O)[C@H](Cc2ccccc2)NC(=O)[C@H](CO)NC(=O)[C@H](C)NC(=O)[C@@H]2CCCN2C(=O)[C@H](CCCC)NC(=O)[C@H](CCCCN)NC(=O)[C@H](CCCNC(=N)N)NC(=O)[C@H](CC(C)C)NC1=O	41 nM	–
CCCC[C@@H]1NC(=O)[C@H](CCCCN)NC(=O)[C@H](CCCNC(=N)N)NC(=O)[C@H](CC(C)C)NC(=O)[C@@H](NC(=O)[C@H](Cc2ccccc2Cl)NC(=O)[C@@H]2CCCN2C(=O)[C@@H](NC(C)=O)C(C)C)CCSSC[C@@H](C(=O)N[C@@H](CCCCN)C(=O)N2CCC[C@H]2C(=O)N2CCC[C@H]2C(=O)N[C@@H](CCC(=O)O)C(N)=O)NC(=O)[C@H](Cc2ccccc2)NC(=O)[C@H](CO)NC(=O)[C@H](C)NC(=O)[C@@H]2CCCN2C1=O	380 nM	–
CCCC[C@@H]1NC(=O)[C@H](CCCCN)NC(=O)[C@H](CCCNC(=N)N)NC(=O)[C@H](CC(C)C)NC(=O)[C@@H](NC(=O)[C@H](CCSC)NC(=O)[C@@H]2CCCN2C(=O)[C@@H](NC(C)=O)C(C)C)CCSSC[C@@H](C(=O)N[C@@H](CCCCN)C(=O)N2CCC[C@H]2C(=O)N2CCC[C@H]2C(=O)N[C@@H](CCC(=O)O)C(N)=O)NC(=O)[C@H](Cc2ccc(F)cc2)NC(=O)[C@H](CO)NC(=O)[C@H](C)NC(=O)[C@@H]2CCCN2C1=O	75 nM	–
CSCC[C@H](NC(=O)[C@@H]1CCCN1C(=O)[C@@H](NC(=O)[C@@H](NC(=O)[C@H](CCC(N)=O)NC(=O)[C@@H]1CCCN1C(C)=O)[C@@H](C)O)C(C)C)C(=O)N[C@@H](CCCNC(=N)N)C(=O)N[C@@H](CC(C)C)C(=O)N[C@@H](CCCNC(=N)N)C(=O)N[C@@H](CCCCN)C(=O)N[C@@H](CC(C)C)C(=O)N1CCC[C@H]1C(=O)N[C@@H](CC(=O)O)C(=O)N[C@@H](CO)C(=O)N[C@@H](Cc1ccccc1)C(N)=O (Ac-PQTVPMRLRKLPDSF-NH2)	–	5.4%
CSCC[C@H](NC(=O)[C@@H]1CCCN1C(=O)[C@@H](NC(=O)[C@@H](NC(=O)[C@H](CCC(N)=O)NC(=O)[C@@H]1CCCN1C(C)=O)[C@@H](C)O)C(C)C)C(=O)N[C@@H](CCCNC(=N)N)C(=O)N[C@@H](CC(C)C)C(=O)N[C@@H](CCCNC(=N)N)C(=O)N[C@@H](CCCCN)C(=O)N[C@@H](CC(C)C)C(=O)N1CCC[C@H]1C(=O)N[C@@H](CC(=O)O)C(=O)N[C@@H](CO)C(=O)N[C@@H](Cc1ccccc1)C(=O)N[C@@H](Cc1ccccc1)C(N)=O (Ac-PQTVPMRLRKLPDSFF-NH2)	–	13%
CSCC[C@H](NC(=O)[C@@H]1CCCN1C(=O)[C@@H](NC(=O)[C@@H](NC(=O)[C@H](CCC(N)=O)NC(=O)[C@@H]1CCCN1C(C)=O)[C@@H](C)O)C(C)C)C(=O)N[C@@H](CCCNC(=N)N)C(=O)N[C@@H](CC(C)C)C(=O)N[C@@H](CCCNC(=N)N)C(=O)N[C@@H](CCCCN)C(=O)N[C@@H](CC(C)C)C(=O)N1CCC[C@H]1C(=O)N[C@@H](CC(=O)O)C(=O)N[C@@H](CO)C(=O)N[C@@H](Cc1ccccc1)C(=O)N[C@@H](Cc1ccccc1)C(=O)N[C@@H](CCCCN)C(N)=O (Ac-PQTVPMRLRKLPDSFFK-NH2)	–	14%
CC(=O)N[C@@H](CCCNC(=N)N)C(=O)N[C@@H](CC(C)C)C(=O)N[C@@H](CCCNC(=N)N)C(=O)N[C@@H](CCCCN)C(=O)N[C@@H](CC(C)C)C(=O)N1CCC[C@H]1C(=O)N[C@@H](CC(=O)O)C(=O)N[C@@H](CO)C(=O)N[C@@H](Cc1ccccc1)C(=O)N[C@@H](Cc1ccccc1)C(=O)N[C@@H](CCCCN)C(=O)N1CCC[C@H]1C(=O)N1CCC[C@H]1C(=O)N[C@@H](CCC(=O)O)C(N)=O (Ac-RLRKLPDSFFKPPE-NH2)	–	12%

Further lines, results first:

IC50 [1]	inhibition [2]	SMILES
–	9.4%	CSCC[C@H](NC(=O)[C@@H]1CCCN1C(=O)[C@@H](NC(=O)[C@@H](NC(=O)[C@H](CCC(N)=O)NC(=O)[C@@H]1CCCN1C(C)=O)[C@@H](C)O)C(C)C)C(=O)N[C@@H](CCCNC(=N)N)C(=O)N[C@@H](CC(C)C)C(=O)N[C@@H](CCCNC(=N)N)C(=O)N[C@@H](CCCCN)C(=O)N[C@@H](CC(C)C)C(=O)N1CCC[C@H]1C(=O)N[C@@H](CC(=O)O)C(=O)N[C@@H](CO)C(=O)N[C@@H](Cc1ccccc1)C(=O)N[C@@H](C)C(=O)N[C@@H](CCCCN)C(=O)N1CCC[C@H]1C(=O)N1CCC[C@H]1C(=O)N[C@@H](CCC(=O)O)C(N)=O (Ac-PQTVPMRLRKLPDSFAKPPE-NH2)
–	42%	CSCC[C@H](NC(=O)[C@@H]1CCCN1C(=O)[C@@H](NC(=O)[C@@H](NC(=O)[C@H](CCC(N)=O)NC(=O)[C@@H]1CCCN1C(C)=O)[C@@H](C)O)C(C)C)C(=O)N[C@@H](CCCNC(=N)N)C(=O)N[C@@H](CC(C)C)C(=O)N[C@@H](CCCNC(=N)N)C(=O)N[C@@H](CCCCN)C(=O)N[C@@H](CC(C)C)C(=O)N1CCC[C@H]1C(=O)N[C@@H](CC(=O)O)C(=O)N[C@@H](CO)C(=O)N[C@@H](Cc1ccccc1)C(=O)N[C@@H](Cc1ccccc1)C(=O)N[C@@H](C)C(=O)N1CCC[C@H]1C(=O)N1CCC[C@H]1C(=O)N[C@@H](CCC(=O)O)C(N)=O (Ac-PQTVPMRLRKLPDSFFAPPE-NH2)
–	47%	CSCC[C@H](NC(=O)[C@@H]1CCCN1C(=O)[C@@H](NC(=O)[C@@H](NC(=O)[C@H](CCC(N)=O)NC(=O)[C@@H]1CCCN1C(C)=O)[C@@H](C)O)C(C)C)C(=O)N[C@@H](CCCNC(=N)N)C(=O)N[C@@H](CC(C)C)C(=O)N[C@@H](CCCNC(=N)N)C(=O)N[C@@H](CCCCN)C(=O)N[C@@H](CC(C)C)C(=O)N1CCC[C@H]1C(=O)N[C@@H](CC(=O)O)C(=O)N[C@@H](CO)C(=O)N[C@@H](Cc1ccccc1)C(=O)N[C@@H](Cc1ccccc1)C(=O)N[C@@H](CCCCN)C(=O)N[C@@H](C)C(=O)N1CCC[C@H]1C(=O)N[C@@H](CCC(=O)O)C(N)=O (Ac-PQTVPMRLRKLPDSFFKAPE-NH2)
–	42%	CSCC[C@H](NC(=O)[C@@H]1CCCN1C(=O)[C@@H](NC(=O)[C@@H](NC(=O)[C@H](CCC(N)=O)NC(=O)[C@@H]1CCCN1C(C)=O)[C@@H](C)O)C(C)C)C(=O)N[C@@H](CCCNC(=N)N)C(=O)N[C@@H](CC(C)C)C(=O)N[C@@H](CCCNC(=N)N)C(=O)N[C@@H](CCCCN)C(=O)N[C@@H](CC(C)C)C(=O)N1CCC[C@H]1C(=O)N[C@@H](CC(=O)O)C(=O)N[C@@H](CO)C(=O)N[C@@H](Cc1ccccc1)C(=O)N[C@@H](Cc1ccccc1)C(=O)N[C@@H](CCCCN)C(=O)N1CCC[C@H]1C(N)=O (Ac-PQTVPMRLRKLPDSFFKP-NH2)
–	52%	CSCC[C@H](NC(=O)[C@@H]1CCCN1C(=O)[C@@H](NC(=O)[C@@H](NC(=O)[C@H](CCC(N)=O)NC(=O)[C@@H]1CCCN1C(C)=O)[C@@H](C)O)C(C)C)C(=O)N[C@@H](CCCNC(=N)N)C(=O)N[C@@H](CC(C)C)C(=O)N[C@@H](CCCNC(=N)N)C(=O)N[C@@H](CCCCN)C(=O)N[C@@H](CC(C)C)C(=O)N1CCC[C@H]1C(=O)N[C@@H](CC(=O)O)C(=O)N[C@@H](CO)C(=O)N[C@@H](Cc1ccccc1)C(=O)N[C@@H](Cc1ccccc1)C(=O)N[C@@H](CCCCN)C(=O)N1CCC[C@H]1C(=O)N1CCC[C@H]1C(N)=O (Ac-PQTVPMRLRKLPDSFFKPP-NH2)
